US20230142274A1 (SIMCERE PHARMACEUTICAL CO., LTD., priority 2020, published 2023)

What was measured:
Daudi cells = assay: Inhibition of human Daudi lymphoma cell proliferation (Cell-Titer Glo); assay type: cell-based; conditions: Homo sapiens, 72 h, 3 days incubation, read-out: Anti-Proliferative Activity Against Daudi cells IC50
Outline: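 Daudi cells in RPMI 1640 with 10% FBS were seeded and grown 24 h, then exposed for 3 days (37 °C, 5% CO2) to 10-point 3-fold serial dilutions at 0.25% final DMSO. Viability was read by CellTiter-Glo ATP luminescence, and IC50 was fitted from % inhibition against top/bottom controls.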

WI-38 cells = assay: Inhibition of human WI-38 embryonic lung cell proliferation (Cell-Titer Glo); assay type: cell-based; conditions: Homo sapiens, 72 h, 3 days incubation, read-out: Anti-Proliferative Activity Against WI-38 cells IC50
Procedure: Introduction of the experimental principle: After the RAD51 inhibitor to be tested was co-incubated with human embryonic lung cells for a period of time, the influence of the test compound on cell proliferation was measured by a method for counting cell proliferation based on the quantitative measurement of intracellular ATP content.
Materials and Cells: WI-38 cells were purchased from ATCC; fetal bovine serum, 1640 medium and penicillin-streptomycin were purchased from Gibco Inc. (U.S.), 96-well plates were purchased from Corning Inc. (U.S.), and Cell-Titer Glo reagent was purchased from Promega Corporation (U.S.).
Cell culture: WI-38 cells were cultured in an EMEM culture medium containing 10% fetal bovine serum and 1% penicillin-streptomycin at 37° C. in an atmosphere containing 5% CO2. Cells in logarithmic growth phase could be used for experiments.
Assay of cell proliferation and viability: Cell-Titer Glo reagent was used to measure the inhibitory activities of the compounds on the proliferation of WI-38 cell strain. The concentration of cells was adjusted, and the cells were seeded in a 96-well plate and cultured at 37° C. in an atmosphere containing 5% CO2 for 24 hours. The powder of the compound was dissolved in 100% DMSO to form a 10 mM solution. 10 μl of the solution of the compound was aspirated and transferred into a 96-well compound plate containing 20 μl of DMSO solution in each well for 3-fold dilution and was then formulated to 10 serial dilutions. Thereafter, 2 μl of the solution of the compound was aspirated from the corresponding well and added correspondingly into a 96-well intermediate compound dilution plate containing 78 μl of complete culture medium in each well. The resultant was mixed well, and the plate was centrifuged at 1000 rpm for 1 minute. Finally, 10 μl of the solution of the compound was aspirated from the corresponding well of the 96-well intermediate compound dilution plate, and transferred into the corresponding well of the cell culture plate containing 90 μl of complete culture medium. The final concentration of DMSO was 0.25%. After the addition of the compound, the cells were continued to be incubated for 3 days at 37° C. in an atmosphere containing 5% CO2. Cell-Titer Glo reagent was added to measure cell viability.
% Compound inhibition was calculated and IC50 of the compound was fitted;
% Compound inhibition=1−100%×(Signal−Bottom)/(Top−Bottom)

[1] = Metabolic stability in liver microsomes (human); assay type: in vitro ADME; conditions: pH 7.4; Human being liver microsomes 0.5 mg/mL, compound 1 μM, NADPH 1 mM, 37° C.
Procedure: (§1) 1. Source of liver microsomes: human liver microsomes (Corning 452117), CD-1 mouse liver microsomes (XENOTECH M1000)
(§2) 1. Formulation of 100 mM phosphate buffer solution (PBS): 7.098 g of Na2HPO4 was weighed and ultrasonically dissolved in 500 mL of pure water to form Solution A. 3.400 g of KH2PO4 was weighed and ultrasonically dissolved in 250 mL of pure water to form Solution B. Solution A was placed in a stirrer and Solution B was slowly added until the pH value reached 7.4, thus formulating 100 mM PBS buffer solution.
(§3) The reaction system was formulated according to Table 3 below.
(§4) 3. The reaction system was placed in a water bath at 37° C. and pre-incubated for 10 minutes. 40 μL of 10 mM NADPH solution (NADPH was dissolved in 100 mM phosphate buffer solution) was added into the reaction system, and the final concentration of NADPH was 1 mM. 40 μL of Phosphate buffer solution was used instead of the NADPH solution as a negative control. The negative control was used to rule out the influence caused by the chemical stability of the compounds per se.
(§5) 4. The reaction system was added with 4 μL of 100 μM the compound of the present disclosure and Verapamil (the positive control compound) (DMSO as the vehicle), so that the reaction was initiated. The final concentration of the compound was 1 μM.
(§6) 5. At 0.5, 15, 30, 45 and 60 minutes, after being well mixed in a vortex oscillator, 50 μL of the incubated samples were taken out respectively, and the reaction was terminated with ice acetonitrile (4-fold) containing an internal standard. The samples were centrifuged at 3220 g for 45 minutes. After the centrifugation, 90 μL of the supernatants were transferred to a sample plate and mixed well with 90 μL of ultrapure water for LC-MS/MS analysis.
(§7) All data were calculated by Microsoft Excel software. Peak areas were determined from the extracted ion chromatograms. The in-vitro half-life (t1/2) of the parent drug was determined by the linear fitting of the natural logarithm of the elimination percentage of the parent drug versus time.
(§8) The in-vitro half-life (t1/2) was calculated from the slope: […]

[2] = Metabolic stability in liver microsomes (CD-1 mouse); assay type: in vitro ADME; conditions: pH 7.4; CD-1 mouse liver microsomes 0.5 mg/mL, compound 1 μM, NADPH 1 mM, 37° C.
Procedure: as §1, §2, §3, §4, §5, §6, §7, §8

[3] = Pharmacokinetic experiment in mouse; assay type: in vivo; conditions: female CB17-SCID mice, oral dose 25 mg/kg
Description: CB17-SCID mice were purchased from Beijing Vital River Laboratory Animal Technology Co., Ltd.
DMSO, HP-β-CD (hydroxypropyl-β-cyclodextrin), PEG400 (polyethylene glycol 400), and Vitamin E TPGS (D-α-tocopherol polyethylene glycol 1000 succinate) were purchased from Sigma.
Six female CB17-SCID mice (20 g to 30 g, aged 4 to 6 weeks) were divided randomly into two groups, with 3 mice in each group. In Group 1, the compound in a vehicle of an aqueous solution containing 5% dimethyl sulfoxide and 95% hydroxypropyl-β-cyclodextrin (10%, w/v) was administered by intravenous injection via tail vein. In Group 2, a corresponding dose of the compound in a vehicle of an aqueous solution containing 30% polyethylene glycol 400 and 70% D-α-tocopherol polyethylene glycol 1000 succinate (10%, w/v) was orally administered. The animals were fed normally with food and water before experiment. The mice in each group underwent intravenous blood collection before administration and at 0.083 h (intravenous injection group only), 0.25 h, 0.5 h, 1 h, 2 h, 4 h, 6 h, 8 h, and 24 h after administration. The collected whole blood samples were placed in K2EDTA anticoagulation tubes and centrifuged for 5 min (4000 rpm, 4° C.) to collect the plasma for testing.
10 μL of the mouse plasma sample was taken, and 150 μL of acetonitrile solvent (containing the internal standard compound) was added to precipitate protein. After the resultant was vortexed for 0.5 min and centrifuged (4700 rpm, 4° C.) for 15 min, the supernatant was subjected to 2-fold dilution with water containing 0.05% (v/v) FA and was then subjected to quantitative measurement in LC-MS/MS system (AB Sciex Triple Quad 6500+). A calibration standard curve was prepared in CB17-SCID mouse plasma along with quality control samples to determine the plasma concentration. As for a 10× diluted sample, 2 μL of sample was taken and 18 μL of blank plasma was added. After being vortexed for 0.5 min, the mixture was added with 300 μL of acetonitrile solvent (containing the internal standard compound) so as to precipitate protein. The rest of the processing steps were the same as those for the undiluted samples.

Structure (SMILES) | IC50 (Daudi cells) [nM] | half-life at 1 μM [1] [h] | half-life at 1 μM [2] [h] | Drug Exposure [3] [µg·h/mL] | Max. Drug Conc. [3] [ng/mL] | Peak Time of Drug Conc. [3] [h] | half-life ([3]; mouse, plasma, read-out: Drug Elimination Half-life (converted)) [h] | IC50 (WI-38 cells) [nM]
CC(C)OC(=O)NC1CCC(c2ncc(-c3ccc(Nc4cnn(C)c4)cc3S(=O)(=O)C3CC3)s2)CC1 (stereo not drawn) [Example 70, isopropyl trans-N-[4-[5-[2-cyclopropylsulfonyl]-4-[(1-methylpyrazol-4-yl)amino]phenyl]thiazol-2-yl]cyclohexyl]carbamate] | 8 | – | – | 137.892 | 32840 | 0.75 | 5 | 21000
CC(C)OC(=O)NC1CCC(c2ncc(-c3ccc(Nc4cnn(CCF)c4)cc3S(=O)(=O)C3CC3)s2)CC1 (stereo not drawn) [Example 85, isopropyl trans-N-[4-[5-[2-cyclopropylsulfonyl]-4-[[1-(2-fluoroethyl)pyrazol-4-yl]amino]phenyl]thiazol-2-yl]cyclohexyl]carbamate] | 0.6 | 1.37 | 0.85 | – | – | – | – | 17000
CC(C)OC(=O)NC1CCC(c2ncc(-c3ccc(Nc4cnn(C5COC5)c4)cc3S(=O)(=O)C3CC3)s2)CC1 (stereo not drawn) [Example 86, isopropyl trans-N-[4-[5-[2-cyclopropylsulfonyl]-4-[[1-(oxetan-3-yl)pyrazol-4-yl]amino]phenyl]thiazol-2-yl]cyclohexyl]carbamate] | 3 | 1.78 | 1.4 | – | – | – | – | > 25000

The remaining molecules from weak to strong by IC50 (Daudi cells), led by results:

IC50 (Daudi cells) [nM] | half-life at 1 μM [1] [h] | half-life at 1 μM [2] [h] | Drug Exposure [3] [µg·h/mL] | Max. Drug Conc. [3] [ng/mL] | Peak Time of Drug Conc. [3] [h] | half-life ([3]; mouse, plasma, read-out: Drug Elimination Half-life (converted)) [h] | Structure (SMILES) | IC50 (WI-38 cells) [nM]
7 | 1.12 | 1.87 | – | – | – | – | CC(C)OC(=O)NC1CCC(c2ncc(-c3ccc(Nc4cnn(CCO)c4)cc3S(=O)(=O)C3CC3)s2)CC1 (stereo not drawn) [Example 84, isopropyl trans-N-[4-[5-[2-cyclopropylsulfonyl]-4-[[1-(2-(hydroxyethyl)pyrazol-4-yl]amino]phenyl]thiazol-2-yl]cyclohexyl]carbamate] | > 25000
4 | 7.03 | 4.52 | – | – | – | – | CC(C)OC(=O)N[C@H]1CC[C@H](c2ncc(-c3ccc(Nc4cc(CO)[nH]n4)cc3S(=O)(=O)C3CC3)s2)CC1 [Example 72, isopropyl trans-(4-(5-(2-(cyclopropylsulfonyl)-4-((5-(hydroxymethyl)-1H-pyrazol-3-yl)amino)phenyl)thiazol-2-yl)cyclohexyl)carbamate] | 20000
